In patent publication US12568972B2, “Pyridazinol compounds and derivatives, preparation methods, herbicidal compositions and applications thereof” (Qingdao Kingagroot Chemical Compound Co., Ltd., priority 2018, dated 2026):

Tests used:
Experiment in all cases: Post-emergence test, weed control effect
Assay type in all cases: in vivo
Conditions in all cases: after 3 weeks
Veronica polita = system: Veronica polita
Method in brief: (§1)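 Activity is expressed as a level from 0 (no effect) to 10 (plant dead), each step matching a further 10% fresh-weight inhibition, assessed 3 weeks post-treatment. Treatment: spray at 2-3 leaf stage of pot-grown plants, compound in acetone, Tween-80 and water with 80% vegetable oil methyl ester synergist at 1500 g/ha.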

Rorippa indica = system: Rorippa indica
Method in brief: as §1

Chenopodiaceae = system: Chenopodiaceae
Method in brief: as §1

Amaranthus retroflexus = system: Amaranthus retroflexus
Method in brief: as §1

Oc1cc(C(F)(F)F)nnc1-c1cncc(Cl)c1F [Compound 1008]
10: weed control effect (activity level), Veronica polita (Veronica polita; Dose 3000 g/ha) | weed control effect (activity level), Rorippa indica (Rorippa indica; Dose 3000 g/ha) | weed control effect (activity level), Chenopodiaceae (Chenopodiaceae; Dose 3000 g/ha) | weed control effect (activity level), Amaranthus retroflexus (Amaranthus retroflexus; Dose 3000 g/ha)

Oc1cc(C(F)(F)F)nnc1-c1cc(OC(F)F)c(Cl)cc1Cl [Compound 165]
10: weed control effect (activity level), Veronica polita (Veronica polita; dose 2000 g/ha) | weed control effect (activity level), Rorippa indica (Rorippa indica; dose 2000 g/ha) | weed control effect (activity level), Chenopodiaceae (Chenopodiaceae; dose 2000 g/ha) | weed control effect (activity level), Amaranthus retroflexus (Amaranthus retroflexus; dose 2000 g/ha)

CS(=O)(=O)c1ccc(S(=O)(=O)Oc2cc(C(F)(F)F)nnc2-c2ccc(F)cc2)cc1 [Compound 1-137]
10: weed control effect, Veronica polita (activity level) (Veronica polita; Dose 3000 g/ha) | weed control effect, Rorippa indica (activity level) (Rorippa indica; Dose 3000 g/ha) | weed control effect, Chenopodiaceae (activity level) (Chenopodiaceae; Dose 3000 g/ha) | weed control effect, Amaranthus retroflexus (activity level) (Amaranthus retroflexus; Dose 3000 g/ha)

O=C(Oc1cc(C(F)(F)F)nnc1-c1ccccc1)N1CCOCC1 [Compound 1-65]
10: weed control effect, Veronica polita (activity level) (Veronica polita; Dose 3000 g/ha) | weed control effect, Rorippa indica (activity level) (Rorippa indica; Dose 3000 g/ha) | weed control effect, Chenopodiaceae (activity level) (Chenopodiaceae; Dose 3000 g/ha) | weed control effect, Amaranthus retroflexus (activity level) (Amaranthus retroflexus; Dose 3000 g/ha)

CCCCCCCC(=O)Oc1cc(C(F)(F)F)nnc1-c1ccc(F)c(F)c1 [Compound 1-14]
10: weed control effect, Veronica polita (activity level) (Veronica polita; Dose 3000 g/ha) | weed control effect, Rorippa indica (activity level) (Rorippa indica; Dose 3000 g/ha) | weed control effect, Chenopodiaceae (activity level) (Chenopodiaceae; Dose 3000 g/ha) | weed control effect, Amaranthus retroflexus (activity level) (Amaranthus retroflexus; Dose 3000 g/ha)

Oc1cc(C(F)(F)F)nnc1-c1ccccc1Cl [Compound 30]
10: weed control effect (activity level), Veronica polita (Veronica polita; dose 1000 g/ha) | weed control effect (activity level), Rorippa indica (Rorippa indica; dose 1000 g/ha) | weed control effect (activity level), Chenopodiaceae (Chenopodiaceae; dose 1000 g/ha) | weed control effect (activity level), Amaranthus retroflexus (Amaranthus retroflexus; dose 1000 g/ha)

O=S(=O)(Oc1cc(C(F)(F)F)nnc1-c1ccc(C(F)(F)F)cc1)C1CC1 [Compound 1-122]
10: weed control effect, Veronica polita (activity level) (Veronica polita; Dose 3000 g/ha) | weed control effect, Rorippa indica (activity level) (Rorippa indica; Dose 3000 g/ha) | weed control effect, Chenopodiaceae (activity level) (Chenopodiaceae; Dose 3000 g/ha) | weed control effect, Amaranthus retroflexus (activity level) (Amaranthus retroflexus; Dose 3000 g/ha)

Oc1cc(C(F)(F)F)nnc1-c1cncc(F)c1Cl [Compound 1002]
10: weed control effect (activity level), Veronica polita (Veronica polita; Dose 3000 g/ha) | weed control effect (activity level), Rorippa indica (Rorippa indica; Dose 3000 g/ha) | weed control effect (activity level), Chenopodiaceae (Chenopodiaceae; Dose 3000 g/ha) | weed control effect (activity level), Amaranthus retroflexus (Amaranthus retroflexus; Dose 3000 g/ha)

Oc1cc(C(F)(F)F)nnc1-c1cc(Cl)nc(Cl)c1 [Compound 218]
10: weed control effect (activity level), Veronica polita (Veronica polita; dose 2000 g/ha) | weed control effect (activity level), Rorippa indica (Rorippa indica; dose 2000 g/ha) | weed control effect (activity level), Chenopodiaceae (Chenopodiaceae; dose 2000 g/ha) | weed control effect (activity level), Amaranthus retroflexus (Amaranthus retroflexus; dose 2000 g/ha)

O=C(/C=C/c1ccc(Cl)cc1)Oc1cc(C(F)(F)F)nnc1-c1ccc(F)cc1 [Compound 1-97]
10: weed control effect, Veronica polita (activity level) (Veronica polita; Dose 3000 g/ha) | weed control effect, Rorippa indica (activity level) (Rorippa indica; Dose 3000 g/ha) | weed control effect, Chenopodiaceae (activity level) (Chenopodiaceae; Dose 3000 g/ha) | weed control effect, Amaranthus retroflexus (activity level) (Amaranthus retroflexus; Dose 3000 g/ha)

Oc1cc(C(F)(F)F)nnc1-c1ccc(F)nc1Cl [Compound 1003]
10: weed control effect (activity level), Veronica polita (Veronica polita; Dose 3000 g/ha) | weed control effect (activity level), Rorippa indica (Rorippa indica; Dose 3000 g/ha) | weed control effect (activity level), Chenopodiaceae (Chenopodiaceae; Dose 3000 g/ha) | weed control effect (activity level), Amaranthus retroflexus (Amaranthus retroflexus; Dose 3000 g/ha)

Oc1cc(C(F)(F)F)nnc1-c1cc(F)ccc1F [Compound 34]
10: weed control effect (activity level), Veronica polita (Veronica polita; dose 1000 g/ha) | weed control effect (activity level), Rorippa indica (Rorippa indica; dose 1000 g/ha) | weed control effect (activity level), Chenopodiaceae (Chenopodiaceae; dose 1000 g/ha) | weed control effect (activity level), Amaranthus retroflexus (Amaranthus retroflexus; dose 1000 g/ha)

Cc1nc(F)ccc1-c1nnc(C(F)(F)F)cc1O [Compound 223]
10: weed control effect (activity level), Veronica polita (Veronica polita; dose 2000 g/ha) | weed control effect (activity level), Rorippa indica (Rorippa indica; dose 2000 g/ha) | weed control effect (activity level), Chenopodiaceae (Chenopodiaceae; dose 2000 g/ha) | weed control effect (activity level), Amaranthus retroflexus (Amaranthus retroflexus; dose 2000 g/ha)

CC(C)OC(=O)OC(C)Oc1cc(C(F)(F)F)nnc1-c1ccccc1 (stereo not shown) [Compound 1-240]
10: weed control effect, Veronica polita (activity level) (Veronica polita; Dose 3000 g/ha) | weed control effect, Rorippa indica (activity level) (Rorippa indica; Dose 3000 g/ha) | weed control effect, Chenopodiaceae (activity level) (Chenopodiaceae; Dose 3000 g/ha) | weed control effect, Amaranthus retroflexus (activity level) (Amaranthus retroflexus; Dose 3000 g/ha)

O=S(=O)(Oc1cc(C(F)(F)F)nnc1-c1ccc(Cl)cc1)c1cccc(OC(F)F)c1 [Compound 1-139]
10: weed control effect, Veronica polita (activity level) (Veronica polita; Dose 3000 g/ha) | weed control effect, Rorippa indica (activity level) (Rorippa indica; Dose 3000 g/ha) | weed control effect, Chenopodiaceae (activity level) (Chenopodiaceae; Dose 3000 g/ha) | weed control effect, Amaranthus retroflexus (activity level) (Amaranthus retroflexus; Dose 3000 g/ha)

O=C(CCCBr)Oc1cc(C(F)(F)F)nnc1-c1ccc(F)c(F)c1 [Compound 1-23]
10: weed control effect, Veronica polita (activity level) (Veronica polita; Dose 3000 g/ha) | weed control effect, Rorippa indica (activity level) (Rorippa indica; Dose 3000 g/ha) | weed control effect, Chenopodiaceae (activity level) (Chenopodiaceae; Dose 3000 g/ha) | weed control effect, Amaranthus retroflexus (activity level) (Amaranthus retroflexus; Dose 3000 g/ha)

CCON(C)C(=O)Oc1cc(C(F)(F)F)nnc1-c1ccc(F)cc1 [Compound 1-63]
10: weed control effect, Veronica polita (activity level) (Veronica polita; Dose 3000 g/ha) | weed control effect, Rorippa indica (activity level) (Rorippa indica; Dose 3000 g/ha) | weed control effect, Chenopodiaceae (activity level) (Chenopodiaceae; Dose 3000 g/ha) | weed control effect, Amaranthus retroflexus (activity level) (Amaranthus retroflexus; Dose 3000 g/ha)

O=C(Oc1cc(C(F)(F)F)nnc1-c1ccc(Cl)cc1)c1ccc2ccccc2n1 [Compound 1-116]
10: weed control effect, Veronica polita (activity level) (Veronica polita; Dose 3000 g/ha) | weed control effect, Rorippa indica (activity level) (Rorippa indica; Dose 3000 g/ha) | weed control effect, Chenopodiaceae (activity level) (Chenopodiaceae; Dose 3000 g/ha) | weed control effect, Amaranthus retroflexus (activity level) (Amaranthus retroflexus; Dose 3000 g/ha)

Oc1cc(C(F)(F)F)nnc1-c1cc(F)cc(Br)c1 [Compound 49]
10: weed control effect (activity level), Veronica polita (Veronica polita; dose 1000 g/ha) | weed control effect (activity level), Rorippa indica (Rorippa indica; dose 1000 g/ha) | weed control effect (activity level), Chenopodiaceae (Chenopodiaceae; dose 1000 g/ha) | weed control effect (activity level), Amaranthus retroflexus (Amaranthus retroflexus; dose 1000 g/ha)

Oc1cc(C(F)(F)F)nnc1-c1cncc(C2CC2)c1 [Compound 214]
10: weed control effect (activity level), Veronica polita (Veronica polita; dose 2000 g/ha) | weed control effect (activity level), Rorippa indica (Rorippa indica; dose 2000 g/ha) | weed control effect (activity level), Chenopodiaceae (Chenopodiaceae; dose 2000 g/ha) | weed control effect (activity level), Amaranthus retroflexus (Amaranthus retroflexus; dose 2000 g/ha)

CN(C)c1ccc(C(=O)Oc2cc(C(F)(F)F)nnc2-c2cccc(F)c2)cc1 [Compound 1-90]
10: weed control effect, Veronica polita (activity level) (Veronica polita; Dose 3000 g/ha) | weed control effect, Rorippa indica (activity level) (Rorippa indica; Dose 3000 g/ha) | weed control effect, Chenopodiaceae (activity level) (Chenopodiaceae; Dose 3000 g/ha) | weed control effect, Amaranthus retroflexus (activity level) (Amaranthus retroflexus; Dose 3000 g/ha)

CCCCC(CC)OC(=O)Oc1cc(C(F)(F)F)nnc1-c1ccc(Br)c([N+](=O)[O-])c1 (stereo not shown) [Compound 1-36]
10: weed control effect, Veronica polita (activity level) (Veronica polita; Dose 3000 g/ha) | weed control effect, Rorippa indica (activity level) (Rorippa indica; Dose 3000 g/ha) | weed control effect, Chenopodiaceae (activity level) (Chenopodiaceae; Dose 3000 g/ha) | weed control effect, Amaranthus retroflexus (activity level) (Amaranthus retroflexus; Dose 3000 g/ha)
